In patent publication US6377057B1, “Classification of biological agents according to the spectral density signature of evoked changes in cellular electric potential” (priority 1999, dated 2002):

Tested on: embryonic chick myocardial cells
Type: cell-based

CNC[C@H](O)c1ccc(O)c(O)c1 [Epinephrine]
PSD ratio (PSD after agent ÷ PSD before agent), modulation function of the action potential: enhanced the power of the AP across a 2 kHz bandwidth with a slight bandpass effect observed

CC[N+](CC)(CC)CC(=O)Nc1c(C)cccc1C.[Br-] [QX-314]
PSD modulation function of the action potential (additional data, concentration not given): modulation function similar to that of TTX, but with additional attenuation at lower frequencies

NC1=N[C@H](O)[C@H]2[C@H]3O[C@]4(O)O[C@@H]([C@@H](O)[C@@]2(N1)[C@@H]4O)[C@]3(O)CO [Tetrodotoxin]
PSD ratio (PSD after agent ÷ PSD before agent), modulation function of the action potential: low pass filter effect that clearly reduced the high frequency components of the AP
